{
  "source": "patent US20030114358A1",
  "about": "“Use of compatible solutes as inhibitors of the enzymatic decomposition of macromolecular biopolymers” (priority 2000, published 2003)",
  "type_in_all_cases": "biochemical",
  "key": {"[1]": {"test_system": "heavy chains of a human antibody (IgG)", "assay": "Limited proteolysis of human IgG by pepsin, quantified in 12% SDS gels", "conditions": "0.5 M solute; 0.5 mg/ml antibody, 5 μg/ml pepsin, 37° C., 100 mM sodium acetate pH 3; FIG. 1", "description": "Limited proteolyses of human IgG were performed at an antibody concentration of 0.5 mg/ml and a pepsin concentration of 5 μg/ml at 37° C. in 100 mM sodium acetate, pH 3. The incubations were performed without additions under 0.5 M ectoine, under 0.5 M hydroxyectoine, and under a mixture of 0.25 M ectoine and 0.25 M hydroxyectoine. The course of the limited proteolyses was quantified subsequent to the incubations in 12% SDS gels under reducing conditions.\nLanes 1, 5, 9: with water; lanes 2, 6, 10: with ectoine; lanes 3, 7, 11: with ectoine and hydroxyectoine; lanes 4, 8, 12; with hydroxyectoine; lanes 1, 2, 3, 4: without incubation; lanes 5, 6, 7, 8: after 15 min of incubation; lanes 9, 10, 11, 12: after 180 min of incubation."}, "pepsin": {"target": "pepsin (Homo sapiens, UniProt P0DJD8)", "sequence (P0DJD8 63-388)": "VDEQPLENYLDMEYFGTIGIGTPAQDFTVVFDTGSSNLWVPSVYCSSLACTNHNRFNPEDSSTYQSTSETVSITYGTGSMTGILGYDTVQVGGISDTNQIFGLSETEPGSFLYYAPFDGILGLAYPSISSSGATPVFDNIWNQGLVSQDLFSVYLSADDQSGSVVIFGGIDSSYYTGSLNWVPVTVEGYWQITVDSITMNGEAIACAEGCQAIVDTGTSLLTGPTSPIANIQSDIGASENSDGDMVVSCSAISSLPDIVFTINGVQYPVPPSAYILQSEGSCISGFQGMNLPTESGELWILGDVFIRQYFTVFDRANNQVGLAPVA", "assay": "Pepsin activity by spectrophotometry on hydrolysis of a synthetic hexapeptide", "conditions": "substrate Leu-Ser-p-NitroPhe-Nle-Ala-Leu methyl ester; enzyme-kinetic measurements", "description": "In principle, the experiments allow for two possible explanations. On the one hand, the compatible solutes could inhibit the protease. On the other hand, the solute could prevent the attack of the protease according to the invention for steric reasons through stabilization of the native, more compact conformation of the antibody molecule. Therefore, the effect of ectoine and hydroxyectoine on the activity of pepsin was determined by spectrophotometry on the hydrolysis of a synthetic low-molecular weight hexapeptide [E. Schinaith: Clin. Biochem. 22, 91-98 (1989)]. […] This is a clear indication of the fact that the inhibition of the antibody proteolyses is to be attributed to steric effects according to the invention."}, "[2]": {"test_system": "monoclonal mouse anti-human IgG", "assay": "ELISA residual signal after pepsin pretreatment of monoclonal mouse antibody", "conditions": "for Residual signal in ELISA, pretreated antibody monoclonal mouse antibody: two hours at 37° C.", "description": "(§1) The inhibition by ectoine of the proteolysis of antibodies was additionally shown by enzyme-linked immunosorbent assay (ELISA). Thus, 96-well ELISA plates were coated over night with 0.5 μg of human IgG in 100 μl of 0.9% NaCl at 4° C. Subsequently, the plates were washed three times in 50 mM Tris, 0.8% NaCl, 0.020% KCl, pH 7.4, C(T-TBS), and blocked with 200 μl of 1% gelatin in TBS for 2 hours at 37° C. After three washes in T-TBS, an incubation was performed with monoclonal mouse anti-human IgG diluted 1:250 in TBS at 50 μl per well for one hour at 37° C. After four washes with T-TBS, incubation was performed with a peroxidase-conjugated rabbit anti-mouse antibody diluted 1:5000 in TBS at 100 μl per well for one hour at 37° C. After four additional washes, the enzyme reaction was performed by adding 100 μl of substrate per well. As the substrate was used 4.8 mg of phenylene diamine in 3 ml of 0.2 M Na2HPO4, 3 ml of 0.1 M citric acid, 6 ml of water, and 5 μl of H2O2. The reaction was stopped after about 10 minutes by acidification with 100 μl per well of 0.07 M sulfuric acid, and the plates were quantified in an ELISA autoreader. Prior to the experiment, all three protein components were proteolyzed by pepsin for two hours at 37° C. with or without the addition of 0.5 M ectoine. […] The antibody conjugate was not attacked by pepsin. The treatment was performed in an analogous manner with hydroxyectoine, proline and betaine."}, "human IgG": {"test_system": "human IgG", "assay": "ELISA residual signal after pepsin pretreatment of human IgG", "conditions": "for Residual signal in ELISA, pretreated antibody human IgG: two hours at 37° C.", "description": "as §1"}, "[3]": {"test_system": "peroxidase-conjugated rabbit anti-mouse antibody", "assay": "ELISA residual signal after pepsin pretreatment of peroxidase conjugate", "conditions": "two hours at 37° C.", "description": "as §1, with “The treatment was performed in an analogous manner with hydroxyectoine, proline and betaine.” left out"}, "[4]": {"conditions": "with ectoine (0.5 M) and pepsin"}, "[5]": {"conditions": "with ectoine (0.5 M), without pepsin"}},
  "data": [
    {"compound": "CC1=NCC[C@@H](C(=O)O)N1", "note": "[ectoine]", "values": [
      {"measurement": "hydrolysis of the heavy chain of human IgG by pepsin", "setting": "[1]", "value": "inhibited significantly"},
      {"measurement": "inhibition of the protease pepsin", "setting": "pepsin", "value": "neither ectoine nor hydroxyectoine inhibits the protease"},
      {"measurement": "protection of monoclonal mouse antibody against proteolytic digest by pepsin", "setting": "[2]; 0.5 M ectoine, ELISA", "value": "effectively protected"},
      {"measurement": "Residual signal in ELISA, pretreated antibody monoclonal mouse antibody", "setting": "[2]; [4]", "value": 98, "unit": "%"},
      {"measurement": "Residual signal in ELISA, pretreated antibody monoclonal mouse antibody", "setting": "[2]; [5]", "value": 97, "unit": "%"},
      {"measurement": "protection of human IgG against proteolytic digest by pepsin", "setting": "human IgG; 0.5 M ectoine, ELISA", "value": "effectively protected"},
      {"measurement": "Residual signal in ELISA, pretreated antibody human IgG", "setting": "human IgG; [4]", "value": 91, "unit": "%"},
      {"measurement": "Residual signal in ELISA, pretreated antibody human IgG", "setting": "human IgG; [5]", "value": 85, "unit": "%"},
      {"measurement": "Residual signal in ELISA, pretreated antibody peroxidase conjugate", "setting": "[3]; [4]", "value": 121, "unit": "%"},
      {"measurement": "Residual signal in ELISA, pretreated antibody peroxidase conjugate", "setting": "[3]; [5]", "value": 98, "unit": "%"}
    ]},
    {"compound": "CC1=NC[C@H](O)[C@@H](C(=O)O)N1", "note": "[hydroxyectoine]", "values": [
      {"measurement": "hydrolysis of the heavy chain of human IgG by pepsin", "setting": "[1]", "value": "inhibited significantly"},
      {"measurement": "inhibition of the protease pepsin", "setting": "pepsin", "value": "neither ectoine nor hydroxyectoine inhibits the protease"}
    ]}
  ]
}
